# Assays:
# Type in all cases: cell-based
# STING variants (WT) [1] = target: T1, STING variants (WT) (Homo sapiens, UniProt Q86WV6); assay: SEAP reporter assay in HEK-Blue ISG KO-STING cells transfected with STING WT variant (Method 1); conditions: 24 h
# T1 construct: host or cells: HEK-Blue ISG KO-STING cells (Invivogen, hkb-kostg)
# From the text: (§1) Example I: STING Variants (WT & HAQ) Activation by Compounds in HEK-Blue™ ISG KO-STING Cells (Method 1)
# (§2) Activation of STING can be determined using a SEAP reporter assay in HEK-Blue™ ISG KO-STING cells (Invivogen, cat #hkb-kostg) transfected with plasmids expressing STING variants (WT & HAQ) (referred to WO2017/175147A1). STING variants (WT & HAQ) vector were constructed based on STING-232H vector (Origene, RC208418). GFP vector (VT2069) was bought from Youbio. The detailed protocol as follows: HEK-Blue™ ISG KO-STING cells were harvest and seeding into 96 well plate, the final cell number was 0.8×10^5 cells/well. Transfections were prepared using Lipofectamine 2000 (Invitrogen, Cat #11668-027) following the manufacturer's instructions (Lipo2000:DNA=1:10), 20 ul of transfection suspension containing 1 ng STING vector was added to cell culture plate and incubated at 37° C., 5% CO2 for 24 h. After 24 hours incubation, compounds were added at proper concentration, and the final DMSO concentration was 0.5%. After 24 h incubation, the supernatant was collected to detect SEAP signal using Great EscAPe SEAP chemiluminescence KIT (Clontech, cat #631738) and cells were collected to detect cell viability using CellTiter-Glo Luminescent Cell Viability Assay (Promega, cat #G7573) following the manufacturer's instructions. The data were described by the ratio of the stimulating signal of compounds to 0.5% DMSO.
# STING variants (HAQ) [2] = target: T2, STING variants (HAQ) (Homo sapiens, UniProt Q86WV6, G230A/R293Q/R71H); assay: SEAP reporter assay in HEK-Blue ISG KO-STING cells transfected with STING HAQ variant (Method 1); conditions: 24 h
# T2 construct: host or cells: HEK-Blue ISG KO-STING cells (Invivogen, hkb-kostg)
# From the text: as §1, §2
# STING = target: T3, STING (Homo sapiens, UniProt Q86WV6, G230A/H232R/R293Q/R71H); assay: IFNβ release from THP1 by STING activation (hIFNβ ELISA); conditions: THP1 cells, 24 h, IFN-β in supernatant; inactive = IFNβ not detected at the maximum concentration of compounds
# T3 construct: THP1 was purchased from National Collection of Authenticated Cell Cultures (Cat #TCHu 57); host or cells: THP1
# Protocol: Example III: Compound Stimulate THP1 to Release IFNβ by STING Activation
# In this assay, activation of STING by compounds was evaluated by detecting their ability to stimulate the secretion of IFN-β (interferon-beta) from THP1. THP1 was purchased from National Collection of Authenticated Cell Cultures (Cat #TCHu 57). The top dose of compounds was setted according to their solubility. First, Compounds were 3 times diluted with medium, 8-dose points in total. The final DMSO concentration was 0.2%. THP1 during the logarithmic phase was resuspended to 2×10^6 cells/ml in assay medium. The THP1-cell suspension was dispensed into a 96-well U bottom plate containing 50 ul of compound diluted in medium. After 24 h incubation at 37° C., 5% CO2, the supernatant was collected. The concentration of IFN-β in the supernatant was measured using a human IFNβ ELISA KIT (R&D, DY814-05). The data was fitted with GraphPad Prism or XLfit to calculate EC50 values.
# STING variants (HAQ) [3] = target: T2, STING variants (HAQ); assay: SEAP reporter assay in HEK-Blue ISG KO-STING cells transfected with STING HAQ variant (Method 2, 0.0625 ng vector); conditions: compound concentration 5 (mM as printed); 24 h; SEAP signal ratio to 0.5% DMSO
# From the text: (§3) Example II: STING Variants (WT & HAQ) Activation by Compounds in HEK-Blue™ ISG KO-STING Cells (Method 2)
# as §2, with “96 well plate and the final” for “96 well plate, the final”, “1 ng (WT variant) or 0.0625 ng (HAQ variant) STING vector” for “1 ng STING vector”, “proper concentration, the final” for “proper concentration, and the final”, “0.5%. After 24h incubation, the” for “0.5%. After 24 h incubation, the”, “Cell Viability Assay(Promega, cat #G7573)” for “Cell Viability Assay (Promega, cat #G7573)”
# STING variants (WT) [4] = target: T1, STING variants (WT); assay: SEAP reporter assay in HEK-Blue ISG KO-STING cells transfected with STING WT variant (Method 2, 1 ng vector); conditions: compound concentration 2.5 (mM as printed); 24 h; SEAP signal ratio to 0.5% DMSO
# From the text: as §3
# as §2, with “96 well plate and the final” for “96 well plate, the final”, “1 ng (WT variant) or 0.0625 ng (HAQ variant) STING vector” for “1 ng STING vector”, “proper concentration, the final” for “proper concentration, and the final”, “0.5%. After 24h incubation, the” for “0.5%. After 24 h incubation, the”, “Cell Viability Assay(Promega, cat #G7573)” for “Cell Viability Assay (Promega, cat #G7573)”
# T2 sequence (Q86WV6 whole entry R71H/G230A/R293Q): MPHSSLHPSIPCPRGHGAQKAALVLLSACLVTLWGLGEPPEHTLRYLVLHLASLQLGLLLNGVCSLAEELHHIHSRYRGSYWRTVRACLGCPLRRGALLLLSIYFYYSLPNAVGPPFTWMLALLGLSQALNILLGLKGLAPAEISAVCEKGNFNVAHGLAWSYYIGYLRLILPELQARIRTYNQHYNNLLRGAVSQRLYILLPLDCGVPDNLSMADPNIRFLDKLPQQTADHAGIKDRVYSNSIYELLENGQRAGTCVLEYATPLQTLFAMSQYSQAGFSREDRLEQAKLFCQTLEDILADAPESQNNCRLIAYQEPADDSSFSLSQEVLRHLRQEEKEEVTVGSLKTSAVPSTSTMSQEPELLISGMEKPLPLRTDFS
# T3 sequence (Q86WV6 whole entry R71H/G230A/H232R/R293Q): as the sequence (Q86WV6 whole entry R71H/G230A/R293Q) above, with H232R counted along it
SMILES,"Fold change related to DMSO control, WT (STING variants (WT) [1]; compound concentration 25 μM) [fold]","Fold change related to DMSO control, HAQ (STING variants (HAQ) [2]; compound concentration 25 μM) [fold]",EC50 (STING) [µM],"hIFNβ ELISA (EC50, μM) (STING)","Fold change related to DMSO control, WT (STING variants (WT) [1]; compound concentration 2.5 μM) [fold]","Fold change related to DMSO control, HAQ (STING variants (HAQ) [2]; compound concentration 5 μM) [fold]","Fold change related to DMSO control, HAQ (STING variants (HAQ) [3]) [fold]","Fold change related to DMSO control, WT (STING variants (WT) [4]) [fold]"
"CCn1nc(C)cc1C(=O)Nc1nc2cc(C(N)=O)cc3c2n1CC(C)(C)CO3 [Example 27, 1-(1-Ethyl-3-methyl-1H-pyrazole-5-carboxamido)-8,8-dimethyl-8,9-dihydro-7H-6-oxa-2,9a-diazabenzo[cd]azulene-4-carboxamide]",2.37,56.43,22.1,,,,,
"CCn1nc(C)cc1C(=O)Nc1nc2cc(C(N)=O)cc3c2n1CC1(CC1)O3 [Example 28, 2-(1-Ethyl-3-methyl-1H-pyrazole-5-carboxamido)-3H-5-oxa-1,2a-diazaspiro[acenaphthylene-4,1′-cyclopropan]-1,2a^1(5a),6,8-tetraene-7-carboxamide]",2.34,38.16,,inactive,,,,
"CCn1nc(C)cc1C(=O)Nc1nc2cc(C(N)=O)cc3c2n1[C@@H](CCCNC(=O)/C=C/c1ccccc1)CO3 [Example 31, (S)-3-(3-Cinnamamidopropyl)-2-(1-ethyl-3-methyl-1H-pyrazole-5-carboxamido)-3,4-dihydro-5-oxa-1,2a-diazaacenaphthylene-7-carboxamide]",2.71,22.11,,inactive,,,,
"CCn1nc(C)cc1C(=O)Nc1nc2cc(C(N)=O)cc3c2n1[C@@H](CCCNC(=O)OCc1cccnc1)CO3 [Example 32, Pyridin-3-ylmethyl (S)-(3-(7-carbamoyl-2-(1-ethyl-3-methyl-1H-pyrazole-5-carboxamido)-3,4-dihydro-5-oxa-1,2a-diazaacenaphthylen-3-yl)propyl)carbamate]",1.45,2.88,,inactive,,,,
"CCn1nc(C)cc1C(=O)Nc1nc2cc(C(N)=O)cc3c2n1[C@@H](CCCNC(=O)COc1ccccc1)CO3 [Example 33, (S)-2-(1-ethyl-3-methyl-1H-pyrazole-5-carboxamido)-3-(3-(2-phenoxyacetamido)propyl)-3,4-dihydro-5-oxa-1,2a-diazaacenaphthylene-7-carboxamide]",2.49,20.81,,inactive,,,,
"CCn1nc(C)cc1C(=O)Nc1nc2cc(C(N)=O)cc3c2n1[C@@H](CCCNC(=O)OCc1ccccc1)CN3C [Example 43, Benzyl (S)-(3-(8-carbamoyl-2-(1-ethyl-3-methyl-1H-pyrazole-5-carbozamido)-6-methyl-5,6-dihydro-4H-imidazo[1,5,4-de]quinoxalin-4-yl)propyl)carbamate]",,,,inactive,2.02,23.88,,
"CCn1nc(C)c(F)c1C(=O)Nc1nc2cc(C(N)=O)cc3c2n1CC(C)(C)CO3 [Example 44, 1-(1-Ethyl-4-fluoro-3-methyl-1H-pyrazole-5-carboxamido)-8,8-dimethyl-8,9-dihydro-7H-6-oxa-2,9a-diazabenzo[cd]azulene-4-carboxamide]",,,19.8,,,,15.38,2.48
"CCn1nc(C)c(Cl)c1C(=O)Nc1nc2cc(C(N)=O)cc3c2n1CC(C)(C)CO3 [Example 45, 1-(4-Chloro-1-ethyl-3-methyl-1H-pyrazole-5-carboxamido)-8,8-dimethyl-8,9-dihydro-7H-6-oxa-2,9a-diazabenzo[cd]azulene-4-carboxamide]",,,,inactive,,,1.59,1.18
"CCn1nc(C)c(Br)c1C(=O)Nc1nc2cc(C(N)=O)cc3c2n1CC(C)(C)CO3 [Example 46, 1-(4-Bromo-1-ethyl-3-methyl-1H-pyrazole-5-carboxamido)-8,8-dimethyl-8,9-dihydro-7H-6-oxa-2,9a-diazabenzo[cd]azulene-4-carboxamide]",,,> 5.6,,,,2.12,1.41
"CC[C@H]1COc2cc(C(N)=O)cc3nc(NC(=O)c4c(F)c(C)nn4CC)n1c23 [Example 47, (S)-3-Ethyl-2-(1-ethyl-4-fluoro-3-methyl-1H-pyrazole-5-carboxamido)-3,4-dihydro-5-oxa-1,2a-diazaacenaphthylene-7-carboxamide]",,,> 5.2,,,,27.64,6.91
"CC[C@H]1COc2cc(C(N)=O)cc3nc(NC(=O)c4c(Cl)c(C)nn4CC)n1c23 [Example 48, (S)-2-(4-Chloro-1-ethyl-3-methyl-1H-pyrazole-5-carboxamido)-3-ethyl-3,4-dihydro-5-oxa-1,2a-diazaacenaphthylene-7-carboxamide]",,,,inactive,,,3.46,1.85
"CC[C@H]1COc2cc(C(N)=O)cc3nc(NC(=O)c4c(Br)c(C)nn4CC)n1c23 [Example 49, (S)-2-(4-Bromo-1-ethyl-3-methyl-1H-pyrazole-5-carboxamido)-3-ethyl-3,4-dihydro-5-oxa-1,2a-diazaacenaphthylene-7-carboxamide]",,,> 2.5,,,,1.94,1.49
"C=CCCCn1nc(C)cc1C(=O)Nc1nc2cc(C(N)=O)cc3c2n1[C@@H](CCCN)CO3 [Example 50, (S)-3-(3-Aminopropyl)-2-(3-methyl-1-(pent-4-en-1-yl)-1H-pyrazole-5-carboxamido)-3,4-dihydro-5-oxa-1,2a-diazaacenaphthylene-7-carboxamide]",,,,inactive,,,1.27,0.83
"C=Cc1c(C)nn(CC)c1C(=O)Nc1nc2cc(C(N)=O)cc3c2n1[C@@H](CCCN)CO3 [Example 51, (S)-3-(3-Aminopropyl)-2-(1-ethyl-3-methyl-4-vinyl-1H-pyrazole-5-carboxamido)-3,4-dihydro-5-oxa-1,2a-diazaacenaphthylene-7-carboxamide]",,,,inactive,,,0.63,0.79
